Assay results reported in patent publication US5556858A, “Cis-2-[(4-heteroaryl-1-piperazinyl)alkyl] hexahydro-1H-isoindole-1,3 (2H)-diones and related compounds and their therapeutic utility” (Hoechst-Roussel Pharmaceuticals, Inc., priority 1995, dated 1996).
Where two headings read alike, the source gives them in different places.

Legend:
[1] = test system: phenylquinone induced writhing; assay: phenyl p-quinone writhing assay (analgesia); format: in vivo, mice; settings: Mus musculus, sc, dose effecting approximately 50% inhibition of writhing
Excerpt: Some of the compounds of the present invention are also useful as analgetics due to their ability to alleviate pain in mammals. […] Exptl. Biol. Med., 95:729 (1957). Thus, for instance, the subcutaneous dose effecting an approximately 50% inhibition of writhing (ED50) in mice produced in this assay is as shown in Table 2.

apomorphine climbing = assay: climbing mice assay (antipsychotic activity); format: in vivo, mice (CK-1 male); settings: Mus musculus; ip; apomorphine 1.5 mg/kg subcutaneously; climbing score vs control
Protocol: Subject […] male mice (23-27 grams) are group-housed under standard laboratory conditions. The mice are individually placed in wire mesh stick cages (4"×10") and are allowed one hour for adaption and exploration of the new environment.
For evaluation of climbing, 3 readings are taken at 10, 20, and 30 minutes-after apomorphine administration according to the following scale: […]
Mice consistently climbing before the injection of apomorphine are discarded.
With full-developed apomorphine climbing, the animals are hanging on to the cage walls, rather motionless, over long periods of time. By contrast, climbs due to mere motor stimulation usually only last a few seconds.
The climbing scores are individually totaled (maximal score: 6 per mouse over 3 readings) and the total score of the control group (vehicle intraperitoneally-apomorphine subcutaneously) is set to 100%.

[2] = read-out: INHIBITION OF PHE[…] WRITHING ED50

Compound | ED50 [1] [mg/kg] | ED50 (apomorphine climbing) [mg/kg] | ED50 [1, 2] [mg/kg]
COc1cc(C(C)=O)ccc1OCCCN1CCC(c2noc3ccccc23)CC1 [1-[4-[3-[4-(1,2-benzisoxazol-3-yl)-1-piperidinyl]propoxy]-3-methoxyphenyl]ethanone] | 0.17 | 0.67 | 
COc1cc(C(C)=O)ccc1OCCCN1CCN(c2n[nH]c3ccccc23)CC1 [1-[4-[3-[4-(1H-indazol-3-yl)-1-piperazinyl]propoxy]-3-methoxyphenyl]ethanone] | 0.06 | 0.98 | 
COc1cc(C(C)=O)ccc1OCCCN1CCC(c2noc3cc(F)ccc23)CC1 [1-[4-[3-[4-(6-fluoro-1,2-benzisoxazol-3-yl)-1-piperidinyl]propoxy]-3-methoxyphenyl]ethanone] | 0.03 | 0.095 | 
CC(C)=CCN1CCC2(C)c3cc(O)ccc3CC1C2C (centres unmarked) [Pentazocine, reference compound] |  |  | 1.3
CCC(=O)O[C@](Cc1ccccc1)(c1ccccc1)[C@H](C)CN(C)C [Propoxyphene, reference compound] |  |  | 3.9
